{"source": "patent US20260328779A1", "about": "“METHODS AND COMPOSITIONS FOR THE DIAGNOSIS AND TREATMENT OF IGA NEPHROPATHY” (Beth Israel Deaconess Medical Center, Inc., priority 2022, published 2026)", "key": {"anti-Tn IgM": {"system": "anti-Tn IgM", "experiment": "Inhibition of anti-Tn antibody binding to Tn glycopeptide array", "set-up": "species or system human", "settings": "glycomimetic 20 mM, 30 min at RT, anti-Tn antibodies C3", "description": "The Tn glycopeptide microarray was prepared as previously described^77. Briefly, the glycopeptides printed on the microarray is as listed (FIG. 2). Purified anti-Tn antibodies (diluted to […] for IgM, and […] for IgG and IgA detection) in TSM binding buffer (20 mM Tris-HCl, pH 7.4, 150 mM NaCl, 2 mM CaCl2), 2 mM MgCl2, with 1% BSA and 0.05% Tween-20) were added to the respective array slides for 1 h at RT. Alexa Fluor #488-labeled goat anti-human IgM or goat anti-human IgG, or FITC-labeled goat anti-human IgA antibody at 1:400 dilution in TSM binding buffer was used for detection of IgM, IgG, and IgA within purified anti-Tn antibodies. Slides were analyzed on a Genepix^# 4300A microarray scanner (Molecular Devices). Images were analyzed with quantitation software (GenePix® Pro Microarray Analysis Software Ver. 7, Molecular Devices). For inhibition assay, a purified Tn(+)IgA1 produced from CosmcKO Dakiki cells was utilized (See Generation of CosmcKO Dakiki cells using CRISPR-Cas9 system for generating the antibody) to inhibit anti-Tn antibodies binding to microarray and Tn(−)IgA1 produced from Dakiki cells as a […]. Purified anti-Tn antibodies (Cl, 10 mg/ml) in TSM binding buffer was preincubated with 1 mg of purified Tn(+)IgA1, or Tn(−)IgA1 for 30 min at RT. […] Heat map and correlation map of binding preferences were analyzed using GLAD (Glycan Array Dashboard)."}, "anti-Tn CICs": {"system": "anti-Tn CICs", "experiment": "ELISA based glycomimetic inhibition assay (anti-Tn CICs binding to IgA1 glycopeptide)", "set-up": "species or system human", "settings": "ID18 with ID19 as baseline, serial dilution (1/3) starting at 10 mM", "description": "IgA1 glycopeptides (ID18, or ID19 as listed in FIG. 2, 0.01 mg/well) were immobilized using immobilization buffer (NaHCO3/Na2CO3, pH 9.6) in a 96-well plate (Thermo Fisher Scientific, PolySorp) overnight at 4° C. The plate was washed 3× with TSM containing 0.05% tween-20 (TSMT) and added 5% (w/v) BSA in TSMT for 1 h at RT. The plate was incubated with 1 mg/ml of purified anti-Tn CICs from IgAN serum (P3, and pooled with P1-P10; Pmix) or healthy donors (C3, and pooled C1-C10; Cmix) in TSMT containing 0.5% BSA for 1 h at RT. The plate was washed 3× with TSMT and incubated for 1 h with HRP-conjugated goat anti-human IgM at 1:1,000 dilution in TSMT containing 0.5% BSA at RT. The plate was washed 3× with TSMT and developed using TMB substrate solution (Cat #ab171523, Abcam) for 30 min, and the reaction was stopped with 1N HCl. Absorbance (450 nm) was read on an ImageXpress #Pico (Molecular Devices). The half-maximal inhibitory concentration (IC50) was calculated with GraphPad Prism 6.0 (GraphPad Software, Inc.) after subtraction from ID19 as a baseline. For inhibition assay, purified anti-Tn CICs were preincubated with a serial dilution (1/3) of α-methylGalNAc or DiαGalNAc (starting at 10 mM) for 30 min at RT."}, "[1]": {"system": "primary human renal mesangial cells", "experiment": "Inhibition of anti-Tn CICs-stimulated mesangial cell proliferation (Ki-67)", "format": "cell-based", "settings": "anti-Tn CICs purified from IgAN patients pretreated with 100 mM compound, 30 min at RT", "description": "[…] of serum was mixed with […] of Tn(+)matrix beads or mock beads overnight at 4° C. (10 rpm). Supernatant was collected after pelleting the beads at 500×g for 30 sec at 4° C. After two rounds of such sequential anti-Tn CICs immunodepletion (serum-ID) and its control (serum-Mock), collected serum was filtered by syringe filter unit (Cat #SLHP033RS, Millipore Sigma) before use. Cells were cultured at ~90% confluency in 96-well plate, and starved in Mesangial cell media (Cat #4201) with 0.5% FBS (Cat #0010) and 0.05× mesangial cell growth supplement (MsCGS, Cat #4252) from ScienCell for 24 h at 37° C. prior to stimulation. Cells were stimulated with 5% serum-Mock, 5% serum-ID with or without exogenous anti-Tn CICs (50 ng/[…]/well, total) for 24 h at 37° C. incubator. Cells were fixed with 4% PFA with 0.05% Triton-X-100 in PBS for 20 min at 4° C. Fixed cells were blocked with 5% (vol/vol) goat serum in PBS for 1 h at 4° C., and incubated with anti-Ki-67 antibody (SP6, rabbit IgG, Cat #CRM325B, Biocare Medical, diluted to 1:50) in PBS for 1 h at 4° C. Cells were washed 3× with chilled PBS, and incubated with Alexa Fluor #488-goat anti-rabbit IgG (Cat #A27034, Thermo Fisher Scientific) at 1:400 in PBS for 1 h at 4° C. in the dark. Cells were washed 3× with chilled PBS, and stained with DAPI (diluted to 0.1 mM) in PBS for 10 min at RT, and analyzed using a microscope (AMG EVOS FL digital inverted microscope, Fisher Scientific, ×400 magnification). For inhibition assay, anti-Tn CICs was preincubated with 100 mM α-methylGalNAc, or α-methylGlcNAc in PBS for 30 min at RT. Serum from three healthy controls (C3, C6, and pooled C1-C10; Cmix) and three IgAN (P5, P10, and pooled P1-P10; Pmix) were used in this assay. […] of serum with IgAN (P1-P20) or healthy control (C1-C20) was analyzed on SDS-PAGE gel, and stained with Coomassie."}}}
{"smiles": "CC(=O)N[C@H]1[C@@H](OCCSCCO[C@H]2O[C@H](CO)[C@H](O)[C@H](O)[C@H]2NC(C)=O)O[C@H](CO)[C@H](O)[C@@H]1O", "note": "[DiαGalNAc, α-D-2-Ethylthio 2-acetamido-galactopyranosyl α-D-2-Ethylthio 2-acetamido-galactopyranoside]", "values": [{"measurement": "inhibition of anti-Tn antibody (IgM) binding to Tn glycopeptide array", "setting": "anti-Tn IgM", "result": "higher inhibition compared to α-methylGalNAc"}, {"measurement": "inhibition of anti-Tn CICs binding to IgA1 glycopeptide", "setting": "anti-Tn CICs", "result": "A higher inhibition of anti-Tn CICs binding"}, {"measurement": "inhibition of anti-Tn CICs binding to IgA1 glycopeptide", "setting": "anti-Tn CICs; listed as Di αGalNAc", "result": "specifically inhibits the binding of anti-Tn CICs to IgA1 glycopeptide"}]}
{"smiles": "CO[C@H]1O[C@H](CO)[C@@H](O)[C@H](O)[C@H]1NC(C)=O", "note": "[α-methylGlcNAc, reference compound]", "values": [{"measurement": "inhibition of proliferative activity of anti-Tn CICs from IgAN patients toward mesangial cells", "setting": "[1]", "result": "did not inhibit the mesangial cell proliferation"}]}
